Experimental data reported in PubChem BioAssay (NCI).
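Values below derive from 48-hour exposures of cells grown in 96-well plates, with endpoints linearly interpolated between the two concentrations bracketing the appropriate inhibition level. GI50 = concentration required for 50% inhibition of growth. TGI: total growth inhibition.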

Key:
Assay in all cases: NCI-60 cell line screen, 48 h
RXF 393 renal = system: RXF 393 renal
HOP-92 NSCLC = system: HOP-92 NSCLC
HCT-15 colon = system: HCT-15 colon
SR leukemia = system: SR leukemia
IGROV1 ovarian = system: IGROV1 ovarian
CAKI-1 renal = system: CAKI-1 renal
NCI-H522 lung = system: NCI-H522 lung
M14 melanoma = system: M14 melanoma
PC-3 prostate = system: PC-3 prostate
SNB-75 CNS = system: SNB-75 CNS

Row | Compound | TGI (RXF 393 renal) [µM] | TGI (HOP-92 NSCLC) [µM] | TGI (HCT-15 colon) [µM] | TGI (SR leukemia) [µM] | TGI (IGROV1 ovarian) [µM] | TGI (CAKI-1 renal) [µM] | TGI (NCI-H522 lung) [µM] | TGI (M14 melanoma) [µM] | TGI (PC-3 prostate) [µM] | TGI (SNB-75 CNS) [µM] | GI50 (RXF 393 renal) [µM] | GI50 (HOP-92 NSCLC) [µM] | GI50 (HCT-15 colon) [µM] | GI50 (SR leukemia) [µM] | GI50 (IGROV1 ovarian) [µM] | GI50 (NCI-H522 lung) [µM] | GI50 (M14 melanoma) [µM] | GI50 (PC-3 prostate) [µM]
1 | C1CNCCNCCN1 | > 100 | > 100 | > 100 | > 100 | > 100 | > 100 | > 100 | > 100 | > 100 |  |  |  |  |  |  |  |  | 
2 | OCC1OC(n2cnc3c(Cl)nc(Nc4ccccc4)nc32)CC1O (stereo not given) | > 100 | 6.87 | 60.8 |  | 66.8 | 3.4 | 10.6 | > 100 | > 100 | > 100 |  |  |  |  |  |  |  | 
3 | O=C(O)c1ccc(S(=O)(=O)c2ccccc2[N+](=O)[O-])cc1 | > 10 |  | > 10 | > 10 | > 10 | > 10 | > 10 | > 10 | > 10 | > 10 |  |  |  |  |  |  |  | 
4 | CC1=NN(c2ccc(S(=O)(=O)O)cc2)C2(C1)SCC(=O)N2c1nc2ccccc2s1 (stereo not given) | > 100 | > 100 | > 100 |  | > 100 | > 100 | > 100 | > 100 | > 100 | > 100 |  |  |  |  |  |  |  | 
5 | CN(C)c1ccc(C2SCC(=O)N2NS(=O)(=O)c2cccc(C(=O)O)c2)cc1 (stereo not given) | > 100 | > 100 | > 100 |  | > 100 | > 100 | > 100 | > 100 | > 100 | > 100 |  |  |  |  |  |  |  | 
6 | Cc1ccc(-c2cc(N)n(-c3nc4c(c(=O)n(C)c(=O)n4C)n3C)n2)cc1 | > 100 | > 100 | > 100 | > 100 | > 100 | > 100 | > 100 | > 100 | > 100 |  |  |  |  |  |  |  |  | 
7 | C1CCC2C(C1)CCCC2NC1=NCCO1 (stereo not given) | > 100 |  | > 100 | > 100 | > 100 | > 100 | > 100 | > 100 | > 100 | > 100 |  |  |  |  |  |  |  | 
8 | CCn1nc2c3c(ncn3C(C)(C)O2)c1=O | > 100 | > 100 | > 100 | > 100 | > 100 | > 100 | > 100 | > 100 | > 100 |  |  |  |  |  |  |  |  | 
9 | O=c1c2c([N+](=O)[O-])cccc2nc2[nH]c3ccccc3n12 | 30.4 | 69 | > 75 | > 75 | 37.1 | 45 |  | > 75 | > 75 |  |  |  |  |  |  |  |  | 
10 | O=C(NCCCCCCNCc1cccc2ccccc12)Nc1cccc2ccccc12 | > 100 | > 100 | > 100 |  | > 100 | > 100 | > 100 | > 100 | > 100 | > 100 |  |  |  |  |  |  |  | 
11 | c1cc2nnnn2nc1N1CCCC1 | > 100 | > 100 | > 100 | > 100 |  | > 100 |  | > 100 | > 100 |  |  |  |  |  |  |  |  | 
12 | COC(=O)[C@@H]1CCCN1CCN1CCC[C@H]1C(=O)OC | > 100 | > 100 | > 100 | 86.6 |  | > 100 | > 100 | > 100 | > 100 |  |  |  |  |  |  |  |  | 
13 | Cc1cn(C2CC(n3cc(Cn4cc(Br)c(=O)[nH]c4=O)nn3)C(CO)O2)c(=O)[nH]c1=O (stereo not given) | > 100 | > 100 | > 100 |  | > 100 | > 100 |  | > 100 | > 100 | > 100 |  |  |  |  |  |  |  | 
14 | COc1cc(C2SCC(=O)N2c2ccc(-c3ccc(-n4c(-c5ccccc5)nc5ccccc5c4=O)cc3)cc2)cc(OC)c1OC (stereo not given) |  | > 100 | > 100 | > 100 | > 100 | 45.8 | 62.3 | > 100 | 41.5 |  |  |  |  |  |  |  |  | 
15 | C/C=C/C(O)P1(=O)N(Cc2ccccc2)[C@@H]2CCCC[C@H]2N1Cc1ccccc1 (stereo not given in full) | > 25 |  | > 25 | > 25 | > 25 | > 25 | > 25 | > 25 | > 25 | > 25 |  |  |  |  |  |  |  | 
16 | CC(=O)O[C@H]1C#C/C=C\C#CC[C@@H]2C(=O)N[C@@H]12 | 73.3 | 98.9 | > 82 |  | > 100 | > 40.1 | > 100 | > 100 | > 100 | > 90.7 |  |  |  |  |  |  |  | 
17 | O=C(OCC1OC2OC(c3ccccc3)(n3ccc4c([N+](=O)[O-])ccnc43)OC2C1OC(=O)c1ccccc1)c1ccccc1 (stereo not given) |  | > 100 | > 100 | > 100 | > 100 | > 100 |  | > 100 | > 100 |  |  |  |  |  |  |  |  | 
18 | C[C@]12CCc3nc(Nc4ccccc4)sc3C1=CC[C@@H]1[C@@H]2CC[C@]2(C)/C(=N/NC(N)=S)CC[C@@H]12 | 5.09 | > 100 | 6.25 | > 100 | > 100 |  | > 100 | > 100 | > 100 |  | 2.18 | 5.59 | 1.64 | 1.71 | 3.89 | 3.07 | 3.71 | 2.95
19 | Nn1c(CCCCCCCCc2nnc(COc3ccc(Cl)cc3)n2N)nnc1COc1ccc(Cl)cc1 | > 100 | > 100 | > 100 |  | > 100 | 35.6 | > 100 | > 100 | > 100 | > 100 |  |  |  |  |  |  |  | 
